Data: US20160113900A1, “INHIBITORS OF MITOCHONDRIAL STAT3 AND USES THEREOF IN MODULATION OF MAST CELL EXOCYTOSIS” (Yissum Research Development Company of the Hebrew …, priority 2014, published 2016)

Key:
[1] = test system: RBL cells; assay: β-Hexosaminidase release assay (degranulation) in RBL cells; type: cell-based, rat
Method: (§1) RBL-2H3 cells were maintained in RPMI 1640 medium as previously described1. Bone marrow was isolated from 5-6 week-old mice, and BMMC were cultured in RPMI medium supplemented with 20 ng/ml interleukin-3 (IL-3) and 20 ng/ml SCF as previously described2, 3. Cells were generally grown for a minimum of 4 weeks and used when >90% of the population expressed FcεRI. BMMC and RBL cells were sensitized first with anti-DNP IgE monoclonal antibody (SPE-7; Sigma-Aldrich Corp.) and then challenged with DNP-BSA (Sigma-Aldrich Corp.). IgE antibody was centrifuged (18,000 g, 5 min) before use to remove aggregates. […] For glycolysis elimination cells were maintained in glucose-free RPMI supplemented with 10% dialyzed fetal calf serum and 5 mM galactose.
(§2) 1×104 RBL or 3×104 BMMC were immunologically activated as described above. After IgE incubation, the cells were washed three times with 5 mL of degranulation buffer (NaCl 130 mM, KCl 5 mM, Glucose 5.6 mM, MgCl2 1 mM, CaCl2 1.2 mM, Hepes pH 7.4 10 mM, BSA 0.1%) and resuspended in 200 μL of the same buffer with DNP-albumin for 30 min. The release of β-hexosaminidase was determined in triplicates in a 96-well plate. Aliquots (20 μL) of supernatants and cell lysates were incubated for 30 minutes with 100 μL of substrate solution (1.3 mg/mL p-nitrophenyl-b-D-2-acetamido-2-deoxyglucopyranozide in 0.1 M citrate [pH 4.51]). The reaction was stopped by the addition of 200 μL of 0.2 M glycine (pH 10.7). The plate OD was read in an enzyme-linked immunosorbent assay (ELISA) reader at a wavelength of 405 nm Percent release values for each experimental condition were calculated3.

[2] = cited from earlier work
[3] = test system: plasma histamine; assay: In vivo histamine release assay, passive systemic IgE-mediated anaphylaxis model; details: mice, Mitocur-3 40 mg/kg i.p., 3.5 h before DNP-BSA challenge
Method: C3H 6-7 week male and female WT mice were purchased from Jackson Lab (Cambridge, Mass., USA), mice were fed a regular diet and with drinking water ad libitum. Experiments were approved by The Hebrew University Ethical Committee for Animal Experimentation.
WT C3H mice were sensitized with 3 μg murine IgE anti-DNP mAb SPE-7 by means of intravenous injection in the tail vein. Twenty-four hours later, mice were treated with 40 mg/kg of static dissolved in corn oil or corn oil alone for 2.5 hours, then mice were challenged with i.v. injection of DNP-BSA (250 μg per mouse). 100 μl of blood was collected immediately and added to an equal volume of pre-cold Alsever's Solution. Blood was centrifuged 2000 g for […] and plasma supernatant was collected. Plasma histamine levels were determined by using competitive ELISA (IBL International Gmbh, Hamburg, Germany).
STAT3's role in vivo was investigated by evaluating the response to allergic stimulation in Stattic-treated mice. The passive systemic IgE-mediated anaphylaxis model was used. Mice were injected (i.v.) with IgE anti-DNP. Twenty four hours later they were injected (i.p.) with Stattic (80 mg/kg) or corn oil which was used as control. Three and a half hours later the mice were challenged with DNP-BSA for 1.5 minutes. Plasma was collected, and histamine levels were measured by competitive ELISA. Histamine secretion in Stattic-treated mice was 43% less than that in control mice (FIG. 17, p<0.05).
Mitocur-1/3 effectiveness in vivo was investigated by evaluating the response to allergic stimulation in Mitocur-1/3-treated mice. The passive systemic IgE-mediated anaphylaxis model was used. Mice were injected (i.v.) with IgE anti-DNP. Twenty four hours later they were injected (i.p.) with Mitocur-1 (80 mg/kg) and Mitocur-3 (40 mg/kg). Corn oil was used as control. Three and a half hours later the mice were challenged with DNP-BSA for 1.5 minutes. Plasma was collected, and histamine levels were measured by competitive ELISA. Histamine secretion in Mitocur-1-treated mice was 35% less than that in control mice (FIG. 22A, p<0.05).

[4] = test system: caspase3; assay: Western blot of caspase3 / cleaved caspase3 (apoptosis) in RBL cells; type: cell-based, rat; details: RBL cells
Method: (§3) RBL cells and mitochondrial pellets were lysed by the addition of lysis buffer (50 mM Tris-HCl pH 7.4, 1% Nonidet P-40, 0.25% Na-deoxycholate, 150 mM NaCl, 1 mM EDTA, 1 mM PMSF) supplemented with 15 μl protease inhibitor (Sigma-Aldrich). Cells and mitochondria were vortexed and incubated on ice for 15 min. The lysates were then centrifuged at 14,000 g for 15 min and pellets were discarded. The protein concentration of each sample was determined using Bradford Reagent (Sigma-Aldrich). Proteins were resolved by 10-15% SDS-PAGE under reducing conditions and transferred to polyvinylidene difluoride membranes (Millipore Billerica, Ma). The membranes were incubated in 5% fat-free milk and TBST (10 mM Tris-HCl, pH 7.4, 150 mM NaCl, 0.1% Tween 20) for 1 h and then in 5% BSA and TBST containing various dilutions of primary Abs for 18 h at 4° C. The membranes were washed three times with TBST for 5 mM before and after each incubation with secondary Ab. The proteins were detected with the appropriate secondary Ab (1 h; room temperature) coupled to HRP-conjugated goat anti-rabbit or anti-mouse Ab and visualized by chemiluminescence according to the manufacturer's instructions (Pierce).

[5] = test system: BMMC; assay: β-Hexosaminidase release assay (degranulation) in BMMC; type: cell-based, mouse; details: activated BMMC, 6 μM
Method: as §1, §2

[6] = test system: caspase3; assay: Western blot of cleaved caspase3 in BMMC; type: cell-based, mouse; details: 6 μM (FIG. 21D)
[7] = test system: RBL cells; assay: ATP determination (ATPLite luminescence) in RBL cells; type: cell-based, rat; details: RBL cells
Method: as §1
ATP levels were measured using the ATPLite luminescence-based assay according to the manufacturer's instructions (Perkin Elmer, Waltham, Mass., USA).

[8] = test system: CBMC; assay: β-Hexosaminidase release assay (degranulation) in human cord blood-derived mast cells; type: cell-based; details: 12 μM, 3 h incubation
[9] = test system: c-myc; assay: Western blot of c-myc (STAT3 target gene) in RBL cells; type: cell-based, rat; details: 3 h
Method: as §3
The levels of cleaved caspase3 were measured as an indicator of apoptosis, which could occur as a result of inhibiting STAT3's target genes. […] Since higher concentrations reduced the levels of c-myc and enhanced the levels of cleaved caspase3, the inventors concluded that 6 μM Mitocur-1/3 or lower would be suitable for the present invention. As these molecules are intended to be used in a time frame greater than 3 h, RBL cells were incubated with the same concentrations of Mitocur-1/3 for 24 h and the levels of cleaved caspase3 were determined by Western blot analysis.

[10] = test system: RBL cells; assay: TNF-α secretion of activated RBL cells; type: cell-based, rat; details: activated RBL cells (FIG. 19G)
[11] = test system: BMMC; assay: Measurements of secreted mediators (ELISA) in activated BMMC; type: cell-based, mouse
Method: 1×106 BMMC were immunologically activated as described above. After IgE incubation, the cells were washed three times in PBS and incubated with DNP-albumin (Sigma-Aldrich) for 30 mM in complete growth medium. Supernatant was collected and Granzyme B and TNFα content were measured using ELISA Kits (eBioscience).

[12] = test system: RBL cells; assay: Oxygen consumption (Seahorse XF analyzer) in RBL cells; type: cell-based, rat; details: RBL cells, 3 h
Method: as §1
Oxygen consumption rate (OCR) was measured using an XF24 extracellular flux analyzer (Seahorse Biosciences, North Billeric, Mass., USA).

[13] = immunologically activated BMMC, 6 μM (FIG. 21C)

## COc1cc(/C=C/C(=O)CC(=O)/C=C/c2ccc(O)c(OC)c2)ccc1O [curcumin, (1E,6E)-1,7-Bis(4-hydroxy-3-methoxyphenyl)-1,6-heptadiene-3,5-dione]
[1]; RBL cells, curcumin 12.5, 25, 50 and 100 μM, 10 min (FIG. 19A)
  degranulation (β-hexosaminidase release): significantly reduced
[1]; activated RBL cells, 10 min incubation with curcumin (FIG. 8)
  degranulation levels: completely abolished
[2]
  pKa of the two phenolic OH groups: 10-10.5

## O=C(/C=C/c1ccc(OCCC[P+](c2ccccc2)(c2ccccc2)c2ccccc2)cc1)CC(=O)/C=C/c1ccc(OCCC[P+](c2ccccc2)(c2ccccc2)c2ccccc2)cc1 [Mitocur-3, 1,7-{4-[3-(triphenylphosphonium)propoxy]phenyl}hepta-1,6-diene-3,5-dione dichloride]
[3]
  decrease in histamine secretion: 32.4%
[1]; Rattus norvegicus, RBL cells, 6 μM, 3 h incubation, read-out: maximum effect, reduction of degranulation
  Emax at 6 µM: > 50%
[4]; 6 μM, 3 h
  cleaved caspase levels: no change
[4]; 6 μM, 24 h
  cleaved caspase3 levels: slight change
[4]; concentrations higher than 6 μM, 3 h
  cleaved caspase3 levels: enhanced
[5]; 3 h incubation
  degranulation levels: reduced
[5]; 24 h incubation
  degranulation levels: reduced
[6]
  cleaved caspase3 levels: no change
other
  melting point: 145 to 160 °C
[7]; 100 μM, 3 h (data not shown)
  ATP levels: reduced
[7]; 6-50 μM, 3 h
  ATP levels: No significant reduction
[8]
  degranulation levels: successfully reduced
[9]; 6 μM
  c-myc levels compared to control: no change
[9]; concentrations higher than 6 μM
  c-myc levels: reduced
[10]
  TNF-α secretion: completely abolished
[11]; BMMC (data not shown)
  Granzyme-B secretion: abolished
[11]; [13]
  cytokine secretion: IL-6: totally abolished
  cytokine secretion: TNF-α: totally abolished
[12]; 100 μM
  oxygen consumption: reduced
[12]; 6-50 μM
  oxygen consumption: No significant reduction
